This passage reports IC50 results from patent publication US20230312556A1, “ARYLAMIDE COMPOUND, PHARMACEUTICAL COMPOSITION COMPRISING SAME, AND PREPARATION METHOD THEREFOR AND USE THEREOF” (SICHUAN KELUN-BIOTECH BIOPHARMACEUTICAL CO., LTD., priority 2020, published 2023).

Assay [1] has as its system human hepatocellular carcinoma cell HepG2 (NRAS-Q61K mutation). Nature of the assay: Cancer cell proliferation inhibition assay, HepG2. It is filed as cell-based. The note with it: 72 h incubation, Cell Titer Glo. The text has this: (§1) The inhibitory effects of the compounds of the present invention on cancer cell proliferation were further evaluated by testing the effects of the compounds of the present invention on the growth of cancer cells.
(§2) In this example, human melanoma cell A375 (BRAF-V600E mutation, purchased from the Cell Bank of the Chinese Academy of Sciences) and human hepatocellular carcinoma cell HepG2 (NRAS-Q61K mutation, purchased from ATCC, USA) were employed.
(§3) In this example, the test compounds at various concentrations (100000 nM, 30000 nM, 10000 nM, 3000 nM, 1000 nM, 300 nM, 100 nM, 30 nM, 10 nM) were added to the above cells, and the incubation was performed for 72 h. The inhibitory activity of the compounds was tested by measuring ATP in living cells using the Cell Titer Glo Kit (Promega).
(§4) The IC50 values of the compounds of the present invention for each tested cell were determined, and the test results are as follows: […]
For orientation: ATP-based viability assays read luminescence as a measure of living cells.

In assay [2] the test system is human melanoma cell A375 (BRAF-V600E mutation). As to the kind of experiment: Cancer cell proliferation inhibition assay, A375. Type of assay: cell-based. The note with it: A-375, 72 h incubation, Cell Titer Glo.
Description: as §1, §2, §3, §4

In general, IC50 refers to the concentration that inhibits the measured activity by half. The low end stands for greater potency in that assay, the high end for weaker potency in that assay.

In the case of `Cc1ccc2c(Nc3cc(C#N)ccc3F)nccc2c1NC(=O)c1cccc2c(N)ncnc12` [Compound 80, 4-amino-N-(1-((5-cyano-2-fluorophenyl)amino)-6-methylisoquinolin-5-yl)quinazoline-8-carboxamide], the half-inhibitory concentration (IC50) stood at 0.0754 ± 0.006 µM in assay [1] and 0.167 ± 0.00847 µM in assay [2].
Consider `COc1ccc(F)c(Nc2nccc3c(NC(=O)c4cccc5c(N)ncnc45)c(C)ccc23)c1` [Compound 87, 4-amino-N-(1-((2-fluoro-5-methoxyphenyl)amino)-6-methylisoquinolin-5-yl)quinazoline-8-carboxamide], for which the IC50 in assay [1] worked out at 0.0377 ± 0.00705 µM; in assay [2] it was 0.056 ± 0.0025 µM.
Take `Cc1ccc2c(Nc3ccc(N(C)C)nc3)nccc2c1NC(=O)c1cccc2c(N)ncnc12` [Compound 59, 4-amino-N-(1-((6-(dimethylamino)pyridin-3-yl)amino)-6-methylisoquinolin-5-yl)quinazoline-8-carboxamide]: the values for the half-inhibitory concentration (IC50) in assay [1] and in assay [2] were 0.211 ± 0.0166 µM and 0.085 ± 0.0052 µM, respectively.
On to `COc1ccc(Nc2nccc3c(NC(=O)c4cccc5c(N)ncnc45)c(C)ccc23)cc1` [Compound 57, 4-amino-N-(1-((4-methoxyphenyl)amino)-6-methylisoquinolin-5-yl)quinazoline-8-carboxamide], for which the IC50 in assay [1] worked out at 0.0243 ± 0.0033 µM; in assay [2], 0.0661 ± 0.017 µM.
On to `CC(=O)c1ccc(Nc2nccc3c(NC(=O)c4cccc5c(N)ncnc45)c(C)ccc23)cc1` [Compound 63, N-(1-((4-acetylphenyl)amino)-6-methylisoquinolin-5-yl)-4-aminoquinazoline-8-carboxamide], for which the values for the IC50 in assay [1] and in assay [2] were 0.0286 ± 0.0027 µM and 0.0463 ± 0.00179 µM, respectively.
Molecule `Cc1ccc2c(Nc3cccc(Cl)c3)nccc2c1NC(=O)c1cnc2c(N)ncnn12` [Compound 12, 4-amino-N-(1-((3-chlorophenyl)amino)-6-methylisoquinolin-5-yl)imidazo[2,1-f][1,2,4]triazine-7-carboxamide] displayed an IC50 in assay [1] of 0.0139 ± 0.0017 µM.
As for `Cc1cc(C(=O)Nc2c(C)ccc3c(Nc4cccc(Cl)c4F)nccc23)c2ncnc(N)c2c1` [Compound 45, 4-amino-N-(1-((3-chloro-2-fluorophenyl)amino)-6-methylisoquinolin-5-yl)-6-methylquinazoline-8-carboxamide], the concentration for half-maximal inhibition (IC50) in assay [1] amounted to 0.0643 ± 0.00508 µM; in assay [2], 0.0742 ± 0.0035 µM.
`Cc1ccc2c(Nc3ccc(Cl)c(F)c3F)nccc2c1NC(=O)c1cnc2c(N)ncnn12` [Compound 70, 4-amino-N-(1-((4-chloro-2,3-difluorophenyl)amino)-6-methylisoquinolin-5-yl)imidazo[2,1-f][1,2,4]triazine-7-carboxamide]: the results for the IC50 in assay [1] and in assay [2] were 0.0599 ± 0.0068 µM and 0.19 ± 0.0238 µM, respectively.
On to `Cc1ccc2c(Nc3ccnc(C(F)(F)F)c3)nccc2c1NC(=O)c1cccc2c(N)ncnc12` [Compound 71, 4-amino-N-(6-methyl-1-((2-(trifluoromethyl)pyridin-4-yl)amino)isoquinolin-5-yl)quinazoline-8-carboxamide], for which the IC50 in assay [1] was 0.053 ± 0.0097 µM; in assay [2], 0.17 ± 0.0138 µM.
In the case of `Cc1ccc2c(Nc3cccc(Cl)c3F)nccc2c1NC(=O)c1cnc2c(N)ncnn12` [Compound 30, 4-amino-N-(1-((3-chloro-2-fluorophenyl)amino)-6-methylisoquinolin-5-yl)imidazo[2,1-f][1,2,4]triazine-7-carboxamide], the IC50 in assay [1] came to 0.0133 ± 0.0009 µM; in assay [2] it was 0.0893 ± 0.0113 µM.
Turning to `Cc1ccc2c(Nc3cccc(Cl)c3F)nccc2c1NC(=O)c1cc(N2CCN(C)CC2)cc2c(N)ncnc12` [Compound 54, 4-amino-N-(1-((3-chloro-2-fluorophenyl)amino)-6-methylisoquinolin-5-yl)-6-(4-methylpiperazin-1-yl)quinazoline-8-carboxamide], the results for the 50% inhibitory concentration (IC50) in assay [1] and in assay [2] were 0.0956 ± 0.00818 µM and 0.108 ± 0.0199 µM, respectively.
For `Cc1ccc2c(Nc3cc(Br)ccc3F)nccc2c1NC(=O)c1cccc2c(N)ncnc12` [Compound 91, 4-amino-N-(1-((5-bromo-2-fluorophenyl)amino)-6-methylisoquinolin-5-yl)quinazoline-8-carboxamide] the same measures were 0.14 ± 0.017 µM and 0.0871 ± 0.0104 µM.
The corresponding values for `Cc1ccc2c(Nc3cccc(Cl)c3F)nccc2c1NC(=O)c1cc(OCCO)cc2c(N)ncnc12` [Compound 86, 4-amino-N-(1-((3-chloro-2-fluorophenyl)amino)-6-methylisoquinolin-5-yl)-6-(2-hydroxyethoxy)quinazoline-8-carboxamide] are 0.048 ± 0.00536 µM and 0.0606 ± 0.0028 µM.
Turning to `Cc1ccc(Nc2nccc3c(NC(=O)c4cccc5c(N)ncnc45)c(C)ccc23)cc1` [Compound 65, 4-amino-N-(6-methyl-1-(p-tolylamino)isoquinolin-5-yl)quinazoline-8-carboxamide], the half-maximal inhibitory concentration (IC50) in assay [1] was determined as 0.0388 ± 0.003 µM; in assay [2], 0.0471 ± 0.0094 µM.
With `Cc1ccc2c(Nc3cccc(Cl)c3F)nccc2c1NC(=O)c1ccnc2c(N)ncnc12` [Compound 81, 4-amino-N-(1-((3-chloro-2-fluorophenyl)amino)-6-methylisoquinolin-5-yl)pyrido[3,2-d]pyrimidine-8-carboxamide], in assay [1], the IC50 was 0.222 ± 0.0298 µM.
`Cc1ccc2c(Nc3cccc(OCCN4CCOCC4)c3F)nccc2c1NC(=O)c1cccc2c(N)ncnc12` [Compound 98, 4-amino-N-(1-((2-fluoro-3-(2-morpholinoethoxy)phenyl)amino)-6-methylisoquinolin-5-yl)quinazoline-8-carboxamide] showed an IC50 in assay [1] of 0.0637 ± 0.0044 µM.
As to `Cc1ccc2c(Nc3cccc(Cl)c3F)nccc2c1NC(=O)c1cn(C)c2c(N)ncnc12` [Compound 101, 4-amino-N-(1-((3-chloro-2-fluorophenyl)amino)-6-methylisoquinolin-5-yl)-5-methyl-5H-pyrrolo[3,2-d]pyrimidine-7-carboxamide], in assay [1], the half-inhibitory concentration (IC50) turned out to be 0.0811 ± 0.0045 µM.
`Cc1ccc2c(Nc3cc(F)c(F)c(F)c3F)nccc2c1NC(=O)c1cccc2c(N)ncnc12` [Compound 96, 4-amino-N-(6-methyl-1-((2,3,4,5-tetrafluorophenyl)amino)isoquinolin-5-yl)quinazoline-8-carboxamide] showed a half-inhibitory concentration (IC50) in assay [1] of 0.119 ± 0.0293 µM. This IC50 and that of the molecule before are within 1.5-fold of each other.
Turning to `Cc1ccc2c(Nc3c(F)c(F)cc(F)c3F)nccc2c1NC(=O)c1cccc2c(N)ncnc12` [Compound 95, 4-amino-N-(6-methyl-1-((2,3,5,6-tetrafluorophenyl)amino)isoquinolin-5-yl)quinazoline-8-carboxamide], the half-inhibitory concentration (IC50) in assay [1] was 0.069 ± 0.0189 µM.
With `Cc1ccc2c(Nc3ccc(Cl)cc3F)nccc2c1NC(=O)c1cnc2c(N)ncnn12` [Compound 55, 4-amino-N-(1-((4-chloro-2-fluorophenyl)amino)-6-methylisoquinolin-5-yl)imidazo[2,1-f][1,2,4]triazine-7-carboxamide], it took 0.0304 ± 0.0043 µM to reach half-maximal inhibition in assay [1] (IC50).
For `Cc1ccc2c(Nc3cc(F)ccc3F)nccc2c1NC(=O)c1cccc2c(N)ncnc12` [Compound 72, 4-amino-N-(1-((2,5-difluorophenyl)amino)-6-methylisoquinolin-5-yl)quinazoline-8-carboxamide], in assay [1], it took 0.0643 ± 0.0123 µM to reach half-maximal inhibition (IC50).
`Cc1ccc2c(C(O)c3ccccc3Cl)nccc2c1NC(=O)c1cccc2c(N)ncnc12` (centres unmarked) [Compound 24, 4-amino-N-(1-((2-chlorophenyl)(hydroxy)methyl)-6-methylisoquinolin-5-yl)quinazoline-8-carboxamide]: half-maximal inhibition in assay [2] (IC50) was put at 0.0707 ± 0.00615 µM.
